One series addresses T1, CYP2B6 (Homo sapiens, UniProt P20813).
T1 sequence (P20813 whole entry): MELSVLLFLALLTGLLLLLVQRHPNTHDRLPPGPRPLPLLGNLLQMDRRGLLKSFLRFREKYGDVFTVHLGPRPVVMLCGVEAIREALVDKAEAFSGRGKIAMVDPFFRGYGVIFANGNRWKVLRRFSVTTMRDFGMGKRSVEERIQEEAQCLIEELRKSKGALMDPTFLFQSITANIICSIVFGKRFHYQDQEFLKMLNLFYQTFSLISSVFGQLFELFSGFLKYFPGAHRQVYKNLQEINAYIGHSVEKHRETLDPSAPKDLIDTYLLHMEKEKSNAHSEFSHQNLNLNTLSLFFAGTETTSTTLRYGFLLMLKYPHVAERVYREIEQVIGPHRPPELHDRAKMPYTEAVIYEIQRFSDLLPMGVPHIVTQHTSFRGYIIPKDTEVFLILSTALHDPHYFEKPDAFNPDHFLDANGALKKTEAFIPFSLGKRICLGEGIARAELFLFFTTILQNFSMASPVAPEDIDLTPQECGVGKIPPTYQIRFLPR
The series is described as follows: Induction of CYP2B6 activity in human donor hepatocytes assessed as hydroxybupropion formation after 48 hrs by LC/MS method. It counts as ADME, cell-based, Hepatocyte. The conditions noted are these: probe bupropion (hydroxybupropion formation measured).

The next series deals with Hepatocyte. The series is described as follows: Induction of CYP2B6 mRNA expression in human donor hepatocytes after 48 hrs by real-time PCR method. It counts as ADME, cell-based.

The values below come from ChEMBL document CHEMBL3525948, “Quantitative prediction of CYP2B6 induction by estradiol during pregnancy: potential explanation for increased methadone clearance during pregnancy” (Drug Metab Dispos, 2013).

In the case of `NC(=O)N1c2ccccc2C=Cc2ccccc21` [CARBAMAZEPINE], the EC50 at 48 h on CYP2B6 was 145 µM. In the series on Hepatocyte, this compound came in with a concentration giving a half-maximal response (EC50) of 26 µM.
Taken in the same sequence, the figures for `C[C@]12CC[C@@H]3c4ccc(O)cc4CC[C@H]3[C@@H]1CC[C@@H]2O` [ESTRADIOL] were 4.1 µM and 1.9 µM.
For `CO[C@H]1/C=C/O[C@@]2(C)Oc3c(C)c(O)c4c(O)c(c(/C=N/N5CCN(C)CC5)c(O)c4c3C2=O)NC(=O)/C(C)=C\C=C\[C@H](C)[C@H](O)[C@@H](C)[C@@H](O)[C@@H](C)[C@H](OC(C)=O)[C@@H]1C` [RIFAMPIN] the same measures were 1.3 µM and 0.98 µM.
